Assay results: patent publication US20260374756A1, “HETEROCYCLIC COMPOUNDS AS INHIBITORS OF MONOACYLGLYCEROL LIPASE (MAGL)” (Hoffmann-La Roche Inc., priority 2022, published 2026)

What follows are compounds tested against T1, hMAGL (Homo sapiens, UniProt Q99685) (assay: 2-AG assay: MAGL inhibition, hydrolysis of 2-arachidonoylglycerol to arachidonic acid followed by mass spectrometry).
T1 sequence (Q99685 1-303): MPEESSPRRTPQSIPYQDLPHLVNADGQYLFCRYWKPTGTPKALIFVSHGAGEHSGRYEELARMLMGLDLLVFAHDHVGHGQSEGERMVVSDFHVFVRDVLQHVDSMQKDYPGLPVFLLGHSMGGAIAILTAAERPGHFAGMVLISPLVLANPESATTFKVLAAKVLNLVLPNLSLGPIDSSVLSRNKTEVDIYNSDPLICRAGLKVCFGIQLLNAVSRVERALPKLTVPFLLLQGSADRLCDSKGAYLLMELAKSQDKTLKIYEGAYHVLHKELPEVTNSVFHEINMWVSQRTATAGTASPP
Assay type: biochemical
Experimental: Compounds of formula (I) were profiled for MAGL inhibitory activity by determining the enzymatic activity by following the hydrolysis of the natural substrate 2-arachidonoylglycerol (2-AG) resulting in arachidonic acid, which can be followed by mass spectrometry. This assay is hereinafter abbreviated “2-AG assay”. The 2-AG assay was carried out in 384 well polypropylene assay plates. […] Compound dilutions were added to MAGL protein in assay buffer (50 mM TRIS, 1 mM EDTA, 0.01% (v/v) Tween-20, 2.5% (v/v) DMSO). After shaking, the plate was incubated for 15 min at RT. To start the reaction, 2-arachidonoylglycerol in assay buffer was added. The final concentrations in the assay was […] for MAGL protein and 8 μM 2-arachidonoylglyerol. After shaking and 30 min incubation at RT, the reaction was quenched by the addition of two assay volumes of acetonitrile containing 4 μM of d8-arachidonic acid. The amount of arachidonic acid formed was traced by an online SPE system (Agilent Rapidfire) coupled to a triple quadrupole mass spectrometer. A C18 SPE cartridge (Agilent G9205A) was used in an acetonitrile/water liquid setup. […] The activity of the compounds was calculated based on the ratio of intensities [arachidonic acid/d8-arachidonic acid].

Row | IC50 [nM] | SMILES
1 | 20.2 | O=C(N1CC2(CC(c3cc(C4CC4)n[nH]3)C2)C1)N1CC2(CN(Cc3ccnn3C(F)(F)F)C2)C1 [Example 224, [6-(3-cyclopropyl-1H-pyrazol-5-yl)-2-azaspiro[3.3]heptan-2-yl]-[6-[[2-(trifluoromethyl)pyrazol-3-yl]methyl]-2,6-diazaspiro[3.3]heptan-2-yl]methanone]
2 | 4.46 | Cn1ncc(CN2CC3(C2)CN(C(=O)N2CC4(CC(n5cnc(C6CC6)n5)C4)C2)C3)c1C(F)(F)F [Example 165, [6-(3-cyclopropyl-1,2,4-triazol-1-yl)-2-azaspiro[3.3]heptan-2-yl]-[6-[[1-methyl-5-(trifluoromethyl)pyrazol-4-yl]methyl]-2,6-diazaspiro[3.3]heptan-2-yl]methanone]
3 | 0.42 | O=C(N1CC2(CC(Cn3cnc(C4(C(F)(F)F)CC4)n3)C2)C1)N1CC2(CC(c3cc(C4CC4)n[nH]3)C2)C1 [Example 74, [6-(3-cyclopropyl-1H-pyrazol-5-yl)-2-azaspiro[3.3]heptan-2-yl]-[6-[[3-[1-(trifluoromethyl)cyclopropyl]-1,2,4-triazol-1-yl]methyl]-2-azaspiro[3.3]heptan-2-yl]methanone]
4 | 18.3 | O=C(N1CC2(CC(Cc3cn(C4CC4)nc3C(F)(F)F)C2)C1)N1CC2(CC(n3cnc(C4(O)CC4)n3)C2)C1 [Example 63, [6-[[1-cyclopropyl-3-(trifluoromethyl)pyrazol-4-yl]methyl]-2-azaspiro[3.3]heptan-2-yl]-[6-[3-(1-hydroxycyclopropyl)-1,2,4-triazol-1-yl]-2-azaspiro[3.3]heptan-2-yl]methanone]
5 | 0.6 | O=C(N1CC2(CC(Cc3cc(C4(C(F)(F)F)CC4)[nH]n3)C2)C1)N1CC2(CC(n3cnc(C(F)F)n3)C2)C1 [Example 352, [6-[3-(difluoromethyl)-1,2,4-triazol-1-yl]-2-azaspiro[3.3]heptan-2-yl]-[6-[[5-[1-(trifluoromethyl)cyclopropyl]-1H-pyrazol-3-yl]methyl]-2-azaspiro[3.3]heptan-2-yl]methanone]
6 | 5.42 | O=C(N1CC2(CC(n3cnc(C4CC4)n3)C2)C1)N1CC2(CN(Cc3nc(C4CC4)ns3)C2)C1 [Example 44, [6-[(3-cyclopropyl-1,2,4-thiadiazol-5-yl)methyl]-2,6-diazaspiro[3.3]heptan-2-yl]-[6-(3-cyclopropyl-1,2,4-triazol-1-yl)-2-azaspiro[3.3]heptan-2-yl]methanone]
7 | 4.2 | O=C(N1CC2(CCN(Cc3cc(C(F)(F)F)[nH]n3)CC2)C1)N1CC2(CC(n3cnc(C4CC4)n3)C2)C1 [Example 29, [6-(3-cyclopropyl-1,2,4-triazol-1-yl)-2-azaspiro[3.3]heptan-2-yl]-[7-[[5-(trifluoromethyl)-1H-pyrazol-3-yl]methyl]-2,7-diazaspiro[3.5]nonan-2-yl]methanone]
8 | 22.6 | O=C(N1CC2(CC(Cc3nc(C(F)(F)F)c[nH]3)C2)C1)N1CC2(CC(n3cnc(C(F)F)n3)C2)C1 [Example 326, [6-[3-(difluoromethyl)-1,2,4-triazol-1-yl]-2-azaspiro[3.3]heptan-2-yl]-[6-[[4-(trifluoromethyl)-1H-imidazol-2-yl]methyl]-2-azaspiro[3.3]heptan-2-yl]methanone]
9 | 8 | O=C(N1CC2(CC(n3cnc(C4CC4)n3)C2)C1)N1CC2(CN(Cc3cc(C4CC4)n[nH]3)C2)C1 [Example 283, [6-[(3-cyclopropyl-1H-pyrazol-5-yl)methyl]-2,6-diazaspiro[3.3]heptan-2-yl]-[6-(3-cyclopropyl-1,2,4-triazol-1-yl)-2-azaspiro[3.3]heptan-2-yl]methanone]
10 | 6.68 | O=C(N1CC2(CC(n3cnc(C4CC4)n3)C2)C1)N1CC2(CN(Cc3cc(C(F)(F)F)no3)C2)C1 [Example 184, [6-(3-cyclopropyl-1,2,4-triazol-1-yl)-2-azaspiro[3.3]heptan-2-yl]-[6-[[3-(trifluoromethyl)isoxazol-5-yl]methyl]-2,6-diazaspiro[3.3]heptan-2-yl]methanone]
11 | 4.09 | Cc1cc(C(F)(F)F)nn1CC1CC2(C1)CN(C(=O)N1CC3(CC(n4cnc(C5CC5)n4)C3)C1)C2 [Example 69, [6-(3-cyclopropyl-1,2,4-triazol-1-yl)-2-azaspiro[3.3]heptan-2-yl]-[6-[[5-methyl-3-(trifluoromethyl)pyrazol-1-yl]methyl]-2-azaspiro[3.3]heptan-2-yl]methanone]
12 | 1.62 | O=C(N1CC2(CC(n3cnc(C4CC4)n3)C2)C1)N1CC2(CN(Cc3snnc3C3CCC3)C2)C1 [Example 77, [6-[(4-cyclobutylthiadiazol-5-yl)methyl]-2,6-diazaspiro[3.3]heptan-2-yl]-[6-(3-cyclopropyl-1,2,4-triazol-1-yl)-2-azaspiro[3.3]heptan-2-yl]methanone]
13 | 72.9 | O=C(N1CC2(CC(Cc3nc(CC(F)(F)F)n[nH]3)C2)C1)N1CC2(CC(n3cnc(C4(O)CC4)n3)C2)C1 [Example 205, [6-[3-(1-hydroxycyclopropyl)-1,2,4-triazol-1-yl]-2-azaspiro[3.3]heptan-2-yl]-[6-[[3-(2,2,2-trifluoroethyl)-1H-1,2,4-triazol-5-yl]methyl]-2-azaspiro[3.3]heptan-2-yl]methanone]
14 | 66.8 | O=C(N1CC2(CC(n3cnc(C4CC4)n3)C2)C1)N1CC2(CN(Cc3nnc(C(F)(F)F)s3)C2)C1 [Example 83, [6-(3-cyclopropyl-1,2,4-triazol-1-yl)-2-azaspiro[3.3]heptan-2-yl]-[6-[[5-(trifluoromethyl)-1,3,4-thiadiazol-2-yl]methyl]-2,6-diazaspiro[3.3]heptan-2-yl]methanone]
15 | 5.73 | O=C(N1CC2(CC(n3cnc(C(F)(F)F)n3)C2)C1)N1CC2(CN(Cc3snnc3C3CCC3)C2)C1 [Example 76, [6-[(4-cyclobutylthiadiazol-5-yl)methyl]-2,6-diazaspiro[3.3]heptan-2-yl]-[6-[3-(trifluoromethyl)-1,2,4-triazol-1-yl]-2-azaspiro[3.3]heptan-2-yl]methanone]
16 | 11.9 | O=C(N1CC2(CC(n3cnc(C4CC4)n3)C2)C1)N1CC2(CN(Cc3nc(C(F)(F)F)no3)C2)C1 [Example 173, [6-(3-cyclopropyl-1,2,4-triazol-1-yl)-2-azaspiro[3.3]heptan-2-yl]-[6-[[3-(trifluoromethyl)-1,2,4-oxadiazol-5-yl]methyl]-2,6-diazaspiro[3.3]heptan-2-yl]methanone]
17 | 146 | O=C(N1CC2(CC(n3cnc(C(F)(F)F)n3)C2)C1)N1CC2(CN(Cc3ccnn3C(F)(F)F)C2)C1 [Example 225, [6-[[2-(trifluoromethyl)pyrazol-3-yl]methyl]-2,6-diazaspiro[3.3]heptan-2-yl]-[6-[3-(trifluoromethyl)-1,2,4-triazol-1-yl]-2-azaspiro[3.3]heptan-2-yl]methanone]
18 | 183 | Cc1c(CN2CC3(C2)CN(C(=O)N2CC4(CC(n5cnc(C6CC6)n5)C4)C2)C3)cnn1C [Example 309, [6-(3-cyclopropyl-1,2,4-triazol-1-yl)-2-azaspiro[3.3]heptan-2-yl]-[6-[(1,5-dimethylpyrazol-4-yl)methyl]-2,6-diazaspiro[3.3]heptan-2-yl]methanone]
19 | 1.83 | O=C(N1CC2(CC(Cc3cc(C(F)(F)F)n[nH]3)C2)C1)N1CC2(CC(n3cnc(C4(O)CC4)n3)C2)C1 [Example 299, [6-[3-(1-hydroxycyclopropyl)-1,2,4-triazol-1-yl]-2-azaspiro[3.3]heptan-2-yl]-[6-[[3-(trifluoromethyl)-1H-pyrazol-5-yl]methyl]-2-azaspiro[3.3]heptan-2-yl]methanone]
20 | 0.87 | Cn1ncc(C(F)(F)F)c1CN1CCC2(CC1)CN(C(=O)N1CC3(CC(n4cnc(C(F)(F)F)n4)C3)C1)C2 [Example 65, [7-[[2-methyl-4-(trifluoromethyl)pyrazol-3-yl]methyl]-2,7-diazaspiro[3.5]nonan-2-yl]-[6-[3-(trifluoromethyl)-1,2,4-triazol-1-yl]-2-azaspiro[3.3]heptan-2-yl]methanone]
21 | 10.8 | O=C(N1CC2(CC(Cc3cnn(CC(F)(F)F)c3)C2)C1)N1CC2(CC(n3cnc(C4(O)CC4)n3)C2)C1 [Example 291, [6-[3-(1-hydroxycyclopropyl)-1,2,4-triazol-1-yl]-2-azaspiro[3.3]heptan-2-yl]-[6-[[1-(2,2,2-trifluoroethyl)pyrazol-4-yl]methyl]-2-azaspiro[3.3]heptan-2-yl]methanone]
22 | 355 | Cn1nccc1CN1CC2(C1)CN(C(=O)N1CC3(CC(n4cnc(C5CC5)n4)C3)C1)C2 [Example 277, [6-(3-cyclopropyl-1,2,4-triazol-1-yl)-2-azaspiro[3.3]heptan-2-yl]-[6-[(2-methylpyrazol-3-yl)methyl]-2,6-diazaspiro[3.3]heptan-2-yl]methanone]
23 | 102 | Cc1nc(C)c(CN2CC3(C2)CN(C(=O)N2CC4(CC(n5cnc(C6CC6)n5)C4)C2)C3)o1 [Example 307, [6-(3-cyclopropyl-1,2,4-triazol-1-yl)-2-azaspiro[3.3]heptan-2-yl]-[6-[(2,4-dimethyloxazol-5-yl)methyl]-2,6-diazaspiro[3.3]heptan-2-yl]methanone]
